Key:
[1] = system: L. innocua; experiment: Direct binding Salmonella assay (chemiluminescence immunosorbent); details: 10^6 L. innocua
Method: The sample was heated to 100° C. for 5 minutes and allowed to cool. One hundred microlitres of each test sample was added directly to a well of a solid white 96 well high binding microtitre plate (Greiner Bio One) and incubated at 37° C. for 30 minutes. During incubation, the lipid A portion of the LPS binds to the surface of the plate via non-covalent hydrophobic interactions (FIG. 1a (1), FIG. 1b(1)).
The final concentration of antibody per well was 50 ng. The plate-bound sample (Salmonella LPS/core oligosaccharide) and antibody were incubated in the coated wells for 30 minutes as 37° C. Following incubation, plates were washed three times in wash buffer and pat dried prior to detection (FIG. 1a(2), FIG. 1b(2)).
When the anti-Salmonella is directly labelled with acridinium ester, plates were placed into a luminometer. 30 μl of trigger solution A and 60 μl of trigger solution B was added to each well of the microtitre plate to initiate light output from conjugated acridinium ester (FIG. 1a(3)). The luminometer settings were as follows:
When the anti-Salmonella antibody is not labelled, a second binding member, a goat anti-mouse IgG2b conjugate is used. Post column IgG2b was diluted 1:100 in a diluent comprising 3% (w/v) non-fat milk powder and 0.05% (v/v) Tween 20 and 100 ul of this solution was added to each well of the plate (FIG. 1b(3)). Following incubation at 37° C. for 60 minutes the plate was washed four times in wash buffer, dried and read as above (FIG. 1b(4)).
Monoclonal antibody (1:100 dilution) was incubated with either Salmonella or Listeria to determine optimum incubation times:
Monoclonal antibody (1:200 dilution) was incubated with either Salmonella or Listeria to determine optimum incubation times: […]

[2] = system: S. aberdeen; experiment: as above; details: for signal, direct binding Salmonella assay: conjugate 1:100; for signal, release and detection of core oligosaccharide: 0.1% SDS

For `CCCCCCCCCCCCOS(=O)(=O)[O-].[Na+]` [SDS, sodium dodecyl sulphate], the “signal, release and detection of core oligosaccharide” value (“signal, release and detection” for short) ([1]; 0.1% SDS) was 7863 relative light units, the “signal, release and detection” value ([1]; 0.5% SDS) was 8051 relative light units and the “signal, direct binding Salmonella assay” value ([2]; 0% SDS, 2.5 × 10^4 S. aberdeen, black and white plates) was 1,617 ± 250. The “signal, direct binding Salmonella assay” value ([2]; 0% SDS, 5 × 10^3 S. aberdeen, black and white plates) was 575 ± 120, the “signal, direct binding Salmonella assay” value ([2]; 0% SDS, 5 × 10^4 S. aberdeen, black and white plates) was 2,027 ± 206 and the “signal, direct binding Salmonella assay” value ([2]; 0% SDS, 10^4 S. aberdeen, black and white plates) was 1,102 ± 357. For the same compound, the “signal, direct binding Salmonella assay” value ([2]; 0% SDS, 10^5 S. aberdeen, black and white plates) was 3,131 ± 121, the “signal, direct binding Salmonella assay” value ([2]; 0% SDS, 10^6 S. aberdeen, black and white plates) was 24,566 ± 4,287 and the “signal, direct binding Salmonella assay” value ([2]; 0% SDS, Peptone, black and white plates) was 643 ± 54. The “signal, direct binding Salmonella assay” value ([2]; 0.1% (w/v) SDS, 2.5 × 10^4 S. aberdeen, white plate, Lucy I) was 28,622 ± 2,162, the “signal, direct binding Salmonella assay” value ([2]; 0.1% (w/v) SDS, 5 × 10^3 S. aberdeen, white plate, Lucy I) was 8,536 ± 1,520 and the “signal, direct binding Salmonella assay” value ([2]; 0.1% (w/v) SDS, 5 × 10^4 S. aberdeen, white plate, Lucy I) was 51,909 ± 3,036. For the same compound, the “signal, direct binding Salmonella assay” value ([2]; 0.1% (w/v) SDS, 10^4 S. aberdeen, white plate, Lucy I) was 11,324 ± 2,770, the “signal, direct binding Salmonella assay” value ([2]; 0.1% (w/v) SDS, 10^5 S. aberdeen, white plate, Lucy I) was 143,796 ± 4,297 and the “signal, direct binding Salmonella assay” value ([2]; 0.1% (w/v) SDS, 10^6 S. aberdeen, white plate, Lucy I) was 356,444 ± 102,877. The “signal, direct binding Salmonella assay” value ([2]; 0.1% (w/v) SDS, Peptone, white plate, Lucy I) was 4,288 ± 1.653, the “signal, direct binding Salmonella assay” value ([2]; 0.1% SDS (first block), 2.5 × 10^4 S. aberdeen, black and white plates) was 1,277 ± 211 and the “signal, direct binding Salmonella assay” value ([2]; 0.1% SDS (first block), 5 × 10^3 S. aberdeen, black and white plates) was 591 ± 1. For the same compound, the “signal, direct binding Salmonella assay” value ([2]; 0.1% SDS (first block), 5 × 10^4 S. aberdeen, black and white plates) was 1,297 ± 4, the “signal, direct binding Salmonella assay” value ([2]; 0.1% SDS (first block), 10^4 S. aberdeen, black and white plates) was 1,662 ± 531 and the “signal, direct binding Salmonella assay” value ([2]; 0.1% SDS (first block), 10^5 S. aberdeen, black and white plates) was 2,386 ± 263. The “signal, direct binding Salmonella assay” value ([2]; 0.1% SDS (first block), 10^6 S. aberdeen, black and white plates) was 16,738 ± 1051, the “signal, direct binding Salmonella assay” value ([2]; 0.1% SDS (first block), Peptone, black and white plates) was 643 ± 54 and the “signal, direct binding Salmonella assay” value ([2]; 0.1% SDS (second block), 2.5 × 10^4 S. aberdeen, black and white plates) was 1,442 ± 28^. The “signal, direct binding Salmonella assay” value ([2]; 0.1% SDS (second block), 5 × 10^3 S. aberdeen, black and white plates) was 678 ± 40, the “signal, direct binding Salmonella assay” value ([2]; 0.1% SDS (second block), 5 × 10^4 S. aberdeen, black and white plates) was 2321 ± 437 and the “signal, direct binding Salmonella assay” value ([2]; 0.1% SDS (second block), 10^4 S. aberdeen, black and white plates) was 930 ± 21. The “signal, direct binding Salmonella assay” value ([2]; 0.1% SDS (second block), 10^5 S. aberdeen, black and white plates) was 4,654 ± 636, the “signal, direct binding Salmonella assay” value ([2]; 0.1% SDS (second block), 10^6 S. aberdeen, black and white plates) was 28,169 ± 1516 and the “signal, direct binding Salmonella assay” value ([2]; 0.1% SDS (second block), Peptone, black and white plates) was 503 ± 76. The “signal, release and detection” value ([2]; 10^1 bacteria (species not given)) was 10248 relative light units, the “signal, release and detection” value ([2]; 10^2 bacteria (species not given)) was 9525 relative light units and the “signal, release and detection” value ([2]; 10^3 bacteria (species not given)) was 12375 relative light units. For the same compound, the “signal, release and detection” value ([2]; 10^4 bacteria (species not given)) was 65960 relative light units, the “signal, release and detection” value ([2]; 10^5 bacteria (species not given)) was 717259 relative light units and the “signal, release and detection” value ([2]; 10^6 bacteria (species not given)) was 895811 relative light units. The “signal, direct binding Salmonella assay” value ([2]; 0.2% (w/v) SDS, 2.5 × 10^4 S. aberdeen, white plate, Lucy I) was 27,339 ± 2,635, the “signal, direct binding Salmonella assay” value ([2]; 0.2% (w/v) SDS, 5 × 10^3 S. aberdeen, white plate, Lucy I) was 10,334 ± 2,264 and the “signal, direct binding Salmonella assay” value ([2]; 0.2% (w/v) SDS, 5 × 10^4 S. aberdeen, white plate, Lucy I) was 75,900 ± 5,798. The “signal, direct binding Salmonella assay” value ([2]; 0.2% (w/v) SDS, 10^4 S. aberdeen, white plate, Lucy I) was 11,098 ± 828^, the “signal, direct binding Salmonella assay” value ([2]; 0.2% (w/v) SDS, 10^5 S. aberdeen, white plate, Lucy I) was 112,096 ± 3,841 and the “signal, direct binding Salmonella assay” value ([2]; 0.2% (w/v) SDS, 10^6 S. aberdeen, white plate, Lucy I) was 365,496 ± 12,729. The “signal, direct binding Salmonella assay” value ([2]; 0.2% (w/v) SDS, Peptone, white plate, Lucy I) was 3,904 ± 59^, the “signal, direct binding Salmonella assay” value ([2]; 0.3% SDS, 2.5 × 10^4 S. aberdeen, white plate, Lucy I) was 38,450 ± 1,411 and the “signal, direct binding Salmonella assay” value ([2]; 0.3% SDS, 5 × 10^3 S. aberdeen, white plate, Lucy I) was 14,313 ± 2,881. For the same compound, the “signal, direct binding Salmonella assay” value ([2]; 0.3% SDS, 5 × 10^4 S. aberdeen, white plate, Lucy I) was 123,881 ± 15,994, the “signal, direct binding Salmonella assay” value ([2]; 0.3% SDS, 10^4 S. aberdeen, white plate, Lucy I) was 14,314 ± 617^ and the “signal, direct binding Salmonella assay” value ([2]; 0.3% SDS, 10^5 S. aberdeen, white plate, Lucy I) was 209,913 ± 40,150. For the same compound, the “signal, direct binding Salmonella assay” value ([2]; 0.3% SDS, 10^6 S. aberdeen, white plate, Lucy I) was 352,714 ± 88,260, the “signal, direct binding Salmonella assay” value ([2]; 0.3% SDS, Peptone, white plate, Lucy I) was 3,026 ± 473 and the “signal, direct binding Salmonella assay” value ([2]; 0.4% SDS, 2.5 × 10^4 S. aberdeen, white plate, Lucy I) was 59,399 ± 13,550. For the same compound, the “signal, direct binding Salmonella assay” value ([2]; 0.4% SDS, 5 × 10^3 S. aberdeen, white plate, Lucy I) was 25,175 ± 5,025, the “signal, direct binding Salmonella assay” value ([2]; 0.4% SDS, 5 × 10^4 S. aberdeen, white plate, Lucy I) was 120,481 ± 16,389 and the “signal, direct binding Salmonella assay” value ([2]; 0.4% SDS, 10^4 S. aberdeen, white plate, Lucy I) was 29,127 ± 2,516. The “signal, direct binding Salmonella assay” value ([2]; 0.4% SDS, 10^5 S. aberdeen, white plate, Lucy I) was 199,287 ± 67,462, the “signal, direct binding Salmonella assay” value ([2]; 0.4% SDS, 10^6 S. aberdeen, white plate, Lucy I) was 398,979 ± 44,871 and the “signal, direct binding Salmonella assay” value ([2]; 0.4% SDS, Peptone, white plate, Lucy I) was 3,499 ± 569. For the same compound, the “signal, direct binding Salmonella assay” value ([2]; 0.5% (w/v) SDS (first block), 2.5 × 10^4 S. aberdeen, black and white plates) was 1094 ± 156.

From patent publication US20110159515A1, “COMPOSITIONS AND METHODS FOR THE RAPID GROWTH AND DETECTION OF MICROORGANISMS” (SOLUS SCIENTIFIC SOLUTIONS LIMITED, priority 2008, published 2011)
